Results on three compounds are retold here after ChEMBL document CHEMBL1141805, “Isolation of 1-Methylherbipoline Salts of Halisulfate-1 and of Suvanine as Serine Protease Inhibitors from a Marine Sponge, Coscinoderma mathewsi” (J Nat Prod, 1998).

Molecules are shown by their SMILES.

What is called IC50 is the point on the concentration scale where inhibition reaches its midpoint. Lower therefore signals inhibition by little substance.

A short description of experiment [1]: Inhibition of trypsin.
Another experiment addresses Prothrombin (Homo sapiens, UniProt P00734).

In the case of `CC1(C)CCC[C@H]2[C@H]1CC[C@@]1(C)[C@@H]2CC/C(=C\OS(=O)(=O)[O-])[C@@H]1CCc1ccoc1.[Na+]`, the IC50 in experiment [1] was 27 µg/mL; on Prothrombin, 19.6 µM.
Regarding `CC1(C)CCC[C@H]2[C@H]1CC[C@@]1(C)[C@@H]2CC/C(=C\OS(=O)(=O)[O-])[C@@H]1CCc1ccoc1.C[N+](C)=C(N)N`, the IC50 in experiment [1] was 23 µg/mL; against Prothrombin it was 47.7 µM.
In the case of `C/C(=C\Cc1cc(O)ccc1O)CCC[C@@H](C)[C@@H](C[C@@H]1CCC[C@H]2C(C)(C)CCC[C@@]12C)OS(=O)(=O)[O-].[Na+]` [HALISULPHATESODIUM], the figures for the IC50 (in experiment [1]; at Prothrombin) were 2 µg/mL and 62.6 µM, respectively.
